Reference: the NIST ThermoML archive (doi:10.1016/j.fluid.2012.11.008)
± gives the expanded uncertainty stated by the source.

Experiment: refractive index (Na D-line) (dimensionless)
Conditions: 293.15 K; 101.33 kPa; Liquid; Standard Abbe refractometry

refractive index	SMILES
1.3689 ± 0.0007	COC(C)(C)C [2-methoxy-2-methylpropane]
1.4003 ± 0.0008	CCC=C(C)C [2-methyl-2-pentene]
1.3752 ± 0.0007	CCCCCC [hexane]
1.3287 ± 0.0007	CO [methanol]

The remaining lines, values behind:

SMILES	refractive index
CCC(C)(C)OC [2-methoxy-2-methylbutane]	1.3886 ± 0.0009
CC#N [acetonitrile]	1.3439 ± 0.0007
CCO [ethanol]	1.3618 ± 0.0007
CCOC(C)=O [ethyl acetate]	1.3724 ± 0.0007
CCCCCCC [heptane]	1.3878 ± 0.0007
